Test results published in PMC8365602 (Journal of Medicinal Chemistry, 2021).
Where two headings read alike, the source gives them in different places.

Legend:
5-LOX [1] = target: T1, 5-LOX (Homo sapiens, UniProt P09917); assay: Tryptophan fluorescence spectroscopy of 5-LOX; type: binding; set-up: made in house; host or cells: E. coli Bl21 (DE3); conditions: 5-LOX titrated with compound, 0–10 μM
T1 sequence (P09917 1-674): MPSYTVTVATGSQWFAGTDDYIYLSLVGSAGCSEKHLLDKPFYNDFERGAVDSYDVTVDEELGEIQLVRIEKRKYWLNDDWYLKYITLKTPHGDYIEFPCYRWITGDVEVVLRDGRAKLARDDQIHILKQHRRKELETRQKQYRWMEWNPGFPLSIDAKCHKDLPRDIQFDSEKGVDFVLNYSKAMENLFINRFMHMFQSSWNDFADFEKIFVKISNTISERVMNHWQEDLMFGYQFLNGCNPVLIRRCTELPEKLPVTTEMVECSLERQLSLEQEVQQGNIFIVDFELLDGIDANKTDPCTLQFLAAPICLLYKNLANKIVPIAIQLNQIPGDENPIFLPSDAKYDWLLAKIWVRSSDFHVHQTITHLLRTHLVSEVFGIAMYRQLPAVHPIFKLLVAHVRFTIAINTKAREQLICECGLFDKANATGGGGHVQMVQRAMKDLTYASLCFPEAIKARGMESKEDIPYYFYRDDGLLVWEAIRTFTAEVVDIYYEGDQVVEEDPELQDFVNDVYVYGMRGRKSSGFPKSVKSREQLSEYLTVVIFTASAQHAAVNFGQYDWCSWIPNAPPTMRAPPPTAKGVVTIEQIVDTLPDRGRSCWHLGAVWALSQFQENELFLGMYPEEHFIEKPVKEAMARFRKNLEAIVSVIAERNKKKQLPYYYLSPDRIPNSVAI
Method: Fluorescence spectroscopy measurements on human recombinant 5-LOX (Abcam, Cambridge, U.K.) were conducted in PBS pH 7.4 at 25 °C using an Edinburgh Instruments FLS920 Series fluorescence spectrophotometer (Livingston, U.K.). […] The concentration range of 5-LOX used through the experiments was 0.3–0.6 μM. 5-LOX was titrated with a stock solution of the test compounds in dimethylformamide to yield an experimental compound concentration in the range of 0–10 μM. The final dimethylformamide concentration was kept under 5%. After each addition, the sample was incubated for 10 min before measurement. The fluorescence emission intensity values were corrected for dilution and background noise. All conditions were measured independently and in duplicate.
The fluorescence spectral shifts were analyzed by monitoring the alterations in the spectral center of mass by estimating the intensity-averaged emission wavelength (⟨λ⟩), as calculated from the following equation, where Fi is the fluorescence emission intensity at wavenumber νi, and the summation was performed over the range of measured F values [drawing 1] 1

human recombinant sEH = target: T2, human recombinant sEH (Homo sapiens, UniProt P34913); assay: sEH activity; type: biochemical
T2 construct: made in house; host or cells: Sf9 insect cells (recombinant baculovirus)
T2 sequence (P34913 whole entry): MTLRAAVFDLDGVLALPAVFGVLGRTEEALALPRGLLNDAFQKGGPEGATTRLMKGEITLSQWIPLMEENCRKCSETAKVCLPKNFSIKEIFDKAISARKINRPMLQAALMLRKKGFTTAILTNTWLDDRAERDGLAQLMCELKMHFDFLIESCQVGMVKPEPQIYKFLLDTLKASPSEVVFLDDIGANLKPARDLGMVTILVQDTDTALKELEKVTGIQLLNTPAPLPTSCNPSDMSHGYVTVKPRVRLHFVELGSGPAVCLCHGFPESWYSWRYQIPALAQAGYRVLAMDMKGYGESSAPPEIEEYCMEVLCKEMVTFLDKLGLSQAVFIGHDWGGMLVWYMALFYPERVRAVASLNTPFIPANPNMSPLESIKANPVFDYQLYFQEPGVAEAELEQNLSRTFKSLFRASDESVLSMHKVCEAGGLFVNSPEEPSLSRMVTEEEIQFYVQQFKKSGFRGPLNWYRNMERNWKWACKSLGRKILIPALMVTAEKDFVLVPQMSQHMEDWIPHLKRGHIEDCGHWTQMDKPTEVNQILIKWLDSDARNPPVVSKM
Method: Human recombinant sEH was expressed in Sf9 insect cells and purified by affinity chromatography.[83] Briefly, Sf9 cells were infected with a recombinant baculovirus and lysed after 72 h in 50 mM NaHPO4 pH 8, 300 mM NaCl, 10% glycerol, 1 mM EDTA, 1 mM phenylmethanesulfonyl fluoride, 10 μg/mL leupeptin, and 60 μg/mL STI by sonication (3 × 10 s, 4 °C). […] Elution with 4-fluorochalcone oxide in PBS pH 7.4 with 1 mM dithiothreitol and 1 mM EDTA yielded sEH, which was dialyzed and concentrated.
Purified sEH (60 ng) in 25 mM Tris HCl pH 7 with 0.1 mg/mL bovine serum albumin (BSA) was preincubated with the vehicle (DMSO) or 27a for 10 min at room temperature. The sEH substrate PHOME (50 μM, Cayman Chemicals) was added to start the enzymatic reaction, which was stopped after 60 min in darkness by addition of ZnSO4 (200 mM). The formation of the fluorescent product 6-methoxynaphtaldehyde was measured using a NOVOstar fluorescence microplate reader (BMG Labtech, Ortenberg, Germany), with excitation at 330 and emission at 465 nm.

5-LOX [2] = target: T1, 5-LOX; assay: 5-LOX product formation in activated PMNL;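 note: freshly isolated human PMNL in PBS pH 7.4 plus glucose, preincubated 10 min at 37 °C with compound, 5-LOX products (all-trans LTB4 isomers, 5-HETE) quantified by RP-HPLC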
Method: These volunteers regularly donated blood (every 8–12 weeks) and were physically inspected by a clinician.
Erythrocytes were removed by dextran sedimentation and hypotonic lysis. PMNL were obtained from the cell pellet and platelets from the supernatant.
Freshly isolated PMNL (5 × 10^6) suspended in PBS pH 7.4 with 1 mg/mL glucose or freshly withdrawn human whole blood were preincubated with the test compounds for 10 min (or as indicated) at 37 °C. […] The reaction was stopped with an equal volume of methanol.

[3] = system: human macrophages (M1 subtype); assay: Lipid mediator profile of M1 macrophages stimulated with pathogenic E. coli; type: cell-based; conditions: 1 μM
Method: Macrophages were polarized to the M1 phenotype by stimulation with LPS (100 ng/mL, Sigma-Aldrich) and interferon (IFN)-γ (20 ng/mL, Peprotech, Hamburg, Germany) for 48 h.[23]
Monocytes (1 × 10^6/mL), which were prestimulated with LPS (1 μg/mL) for 24 h to induce COX-2 expression, or M1 macrophages (2 × 10^6 cells/mL) were preincubated with the vehicle (0.1% DMSO), 27a, or 12a for 15 min. Arachidonic acid (20 μM) and A23187 (2.5 μM) were added to monocytes suspended in a monocyte medium (lacking FCS if indicated) to induce lipid mediator formation.[81]
Fatty acids and lipid mediators were extracted from macrophage supernatants or murine peritoneal exudates (1 mL) after addition of two aliquots of ice-cold methanol.[23]d8-5S-HETE, d4-LTB4, d5-lipoxin A4, d5-resolvin D2, d4-PGE2 (200 nM, each, Cayman Chemicals), and d8-arachidonic acid (10 μM, Cayman Chemicals) were added as internal standards. […] The columns were extensively washed with H2O and hexane before lipid mediators were eluted with methyl formate, evaporated to dryness, dissolved in methanol/H2O (50:50), and analyzed by UPLC-MS/MS.[23]
To quantify lipid mediators and fatty acids in macrophages, murine plasma, and murine peritoneal exudates, the mobile phase methanol/H2O (acidified with 0.01% acetic acid) was ramped from 42:58 to 86:14 over 12.5 min, followed by isocratic elution with methanol/H2O (98:2) for 3 min. […]

monocytes = assay: Monocyte membrane integrity (LDH release); type: cell-based, human; conditions: higher concentrations (>1 μM)
Method: To measure mitochondrial dehydrogenase activity, 3-(4,5-dimethylthiazol-2-yl)-2,5-diphenyltetrazolium bromide (MTT) (20 μL, 5 mg/mL, Sigma-Aldrich) was added to PBMC. After 4 h in the darkness, the formed formazan product was solubilized (10% SDS in 20 mM HCl) and the absorbance was read at 570 nm using a Multiskan Spectrum microplate reader (Thermo Fisher Scientific).[81]
LDH release was measured in monocytes using a CytoTox 96 nonradioactive cytotoxicity assay (Promega, Madison, WI) according to the manufacturer’s instruction using Triton X-100 (0.8%) as the maximum LDH release control.

Structure (SMILES): C/C(=C\CC/C(C)=C/CC[C@]1(C)CCc2c(C)c(O)c(C)c(C)c2O1)CCC=C(CO)CO [Compound 27a, α-amplexichromanol]
- Shift of spectral center of mass of intrinsic Trp fluorescence of 5-LOX (5-LOX [1]): less pronounced
- sEH inhibition (human recombinant sEH): not substantially inhibited
- remaining activity at 3 µM (5-LOX [2]; PMNL, read-out: 5-LOX PMNL residual activity at 3 μM): 0.5 ± 0.1%
- IC50 (5-LOX [2]; read-out: 5-LOX PMNL IC50, 5-LOX product formation in activated PMNL, mean ± SEM): 40 ± 10 nM
- IC50 (5-LOX [2]; read-out: IC50, 5-LOX product formation in PMNL, A23187): 50 nM
- Biosynthesis of 5-LOX-derived products in M1 macrophages [3]: preferentially suppressed the biosynthesis of 5-LOX-derived products
- PGE2 levels in M1 macrophages [3]: slightly increased
- LDH release from monocytes at higher concentrations (monocytes): induced a rapid release of lactate dehydrogenase
